According to patent publication US5225528A, “Cyclic hexapeptide oxytocin antagonists” (priority 1990, dated 1993):
Where two headings read alike, the source gives them in different places. Numbered stars: 1 amine (or outer) side, 2 acyl side, 3 side chain; on linkers, the order of the positions; unused ones are H or OH. Square brackets hold non-standard residues; d marks the D form. Peptide text beside a SMILES is read from it. * marks the point of attachment. X9 = O=C([C@@H]1CN(P(=O)(OCc2ccccc2)OCc2ccccc2)CCN1[*:1])[*:2]; X2 = O=C(OCc1ccccc1)N1CCN([*:1])[C@H](C(=O)[*:2])C1; X5 = CC(C)(C)OC(=O)CN1CCN([*:1])[C@H](C(=O)[*:2])C1; X4 = O=C([C@@H](Cc1cn(COCc2ccccc2)cn1)N[*:1])[*:2]; X10 = O=C(O)CN1CCN([*:1])[C@H](C(=O)[*:2])C1; dPiz(1,6-dehydro) = O=C(O)[C@H]1CCC=NN1; d2Nal = N[C@H](Cc1ccc2ccccc2c1)C(=O)O; Pip(4-aza) = O=C(O)[C@@H]1CNCCN1; dNMeF = CN[C@H](Cc1ccccc1)C(=O)O; Pip = O=C(O)[C@@H]1CCCCN1; dPip = O=C(O)[C@H]1CCCCN1; dNMeA = CN[C@H](C)C(=O)O; Boc = CC(C)(C)OC(=O)*; OtBu = CC(C)(C)O*

Tests used:
uterine OT receptors = biological target: T1, uterine OT receptors (Rattus norvegicus, UniProt P70536); test: [^3 H]OT binding to uterine OT receptors, crude membrane preparation of uteri from DES-treated rats; conditions: for inhibition at 1 µM: @ 1,000 (nM); for IC50: rat uterus membranes, 1 nM [^3 H]OT, read-out: Receptor Binding Results IC50 (nM) [^3 H]OT
T1 construct: from tissue; host or cells: uterus of DES-treated rats, crude membranes
T1 sequence (P70536 1-388): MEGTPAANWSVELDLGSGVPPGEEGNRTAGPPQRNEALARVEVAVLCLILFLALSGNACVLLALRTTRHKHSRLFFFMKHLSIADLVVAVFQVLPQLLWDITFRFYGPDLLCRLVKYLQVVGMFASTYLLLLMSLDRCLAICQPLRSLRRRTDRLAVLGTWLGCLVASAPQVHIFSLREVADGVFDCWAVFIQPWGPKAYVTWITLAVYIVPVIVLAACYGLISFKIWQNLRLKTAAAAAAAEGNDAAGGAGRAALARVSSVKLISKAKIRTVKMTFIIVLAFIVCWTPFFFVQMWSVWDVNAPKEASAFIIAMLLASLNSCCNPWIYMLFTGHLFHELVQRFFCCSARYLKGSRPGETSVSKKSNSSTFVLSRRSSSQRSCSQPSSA
Procedure: Competition studies were conducted at equilibrium (60 minutes; 22° C.) using 1 nM [^3 H]OT in the following assay buffer: 50 mM Tris-HCl, 5 mM MgCl2, and 0.1% BSA, pH 7.4.

AVP-V1 sites = biological target: T2, AVP-V1 sites (Rattus norvegicus, UniProt P30560); test: [^3 H]AVP binding to crude membrane preparation of male rat liver (AVP-V1 sites)
T2 construct: crude membrane preparation of male rat liver (AVP-V1 sites); from tissue; host or cells: male rat liver, crude membranes
Procedure: (§1) Nonspecific binding (5-10% of the total binding) was determined using 10 μM unlabeled AVP, and the binding reaction was terminated by filtration as described above for the [^3 H]OT binding assay.

AVP-V2 sites = biological target: T3, AVP-V2 sites (Rattus norvegicus, UniProt Q00788); test: [^3 H]AVP binding to crude membrane preparation of male rat kidney medulla (AVP-V2 sites); conditions: for IC50: read-out: Receptor Binding Results IC50 (nM) [^3 H]-AVP-V2
T3 construct: male rat liver (AVP-V1 sites) or kidney medulla (AVP-V2 sites); from tissue; host or cells: male rat kidney medulla, crude membranes
Procedure: as §1

[1] = 1 h, read-out: [^3 H]OT: percent inhibition of radioligand at the given concentration
[2] = Receptor Binding Results IC50 (nM) [^3 H]-AVP-V1
[3] = rat kidney medulla membranes, 2 nM [^3 H]AVP
[4] = read-out: Receptor Binding Results IC50 (nM) [^3 H]-AVP-V1
[5] = 0.5 h, @ 10,000 (nM), read-out: [^3 H]-AVP-V2: percent inhibition of radioligand at the given concentration

T2 sequence (P30560 whole entry): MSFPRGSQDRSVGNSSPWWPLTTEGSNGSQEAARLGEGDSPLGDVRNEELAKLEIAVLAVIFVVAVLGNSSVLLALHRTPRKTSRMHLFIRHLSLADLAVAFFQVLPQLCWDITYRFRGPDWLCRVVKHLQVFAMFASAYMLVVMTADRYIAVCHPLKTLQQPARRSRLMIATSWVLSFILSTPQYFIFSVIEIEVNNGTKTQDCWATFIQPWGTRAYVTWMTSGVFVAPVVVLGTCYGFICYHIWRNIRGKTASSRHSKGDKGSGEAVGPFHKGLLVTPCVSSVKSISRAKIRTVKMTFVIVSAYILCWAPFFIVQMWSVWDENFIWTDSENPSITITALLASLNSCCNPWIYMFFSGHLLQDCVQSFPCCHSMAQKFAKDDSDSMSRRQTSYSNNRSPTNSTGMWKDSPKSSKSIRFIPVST
T3 sequence (Q00788 whole entry): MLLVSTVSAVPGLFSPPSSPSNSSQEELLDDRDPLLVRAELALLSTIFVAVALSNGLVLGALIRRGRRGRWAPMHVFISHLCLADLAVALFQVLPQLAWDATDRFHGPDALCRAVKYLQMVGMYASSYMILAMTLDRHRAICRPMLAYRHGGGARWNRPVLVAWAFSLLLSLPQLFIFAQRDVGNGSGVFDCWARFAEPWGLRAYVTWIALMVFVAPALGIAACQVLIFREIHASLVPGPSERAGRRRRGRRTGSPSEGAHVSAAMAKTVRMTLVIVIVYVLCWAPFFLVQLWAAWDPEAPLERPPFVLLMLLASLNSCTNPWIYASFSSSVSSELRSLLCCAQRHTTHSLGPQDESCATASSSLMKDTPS

Row | IC50 (uterine OT receptors) | IC50 (AVP-V1 sites; [4]) | IC50 (AVP-V2 sites) | SMILES | IC50 (AVP-V1 sites; [2]) | IC50 (AVP-V2 sites; [3]) | also measured
1 | – | – | – | CC[C@H](C)[C@@H]1NC(=O)[C@@H](C)N(C)C(=O)[C@@H]2CCCN2C(=O)[C@@H](Cc2ccccc2)N(C)C(=O)[C@@H]2CCCCN2C(=O)[C@H]2CCCCN2C1=O [Example 167, c-[N-Me-D-Alanyl-L-isoleucyl-D-pipecolyl-L-pipecolyl-N-Me-D-phenylalanyl-L-prolyl]] (cyclo(I[dPip][Pip][dNMeF]P[dNMeA])) | > 10000 nM | > 10000 nM | inhibition at 1 µM (uterine OT receptors; [1]): 5%
2 | – | – | – | CC[C@H](C)[C@@H]1NC(=O)[C@@H](Cc2ccc3ccccc3c2)NC(=O)[C@@H]2CCCN2C(=O)[C@@H](Cc2ccccc2)N(C)C(=O)[C@@H]2CN(C(=O)OCc3ccccc3)CCN2C(=O)[C@H]2CCCCN2C1=O [Example 169, c-[D-2-Naphthylalanyl-L-isoleucinyl-D-pipecolyl-L-piperazin-2-yl(4-Cbz)-D-(Nα-methyl)-phenylalanyl-L-prolyl]] (cyclo(I[dPip][X2][dNMeF]P[d2Nal])) | > 10000 nM | 10000 nM | inhibition at 0.01 µM (uterine OT receptors; 1 h, @ 10 (nM), read-out: [^3 H]OT: percent inhibition of radioligand at the given concentration): 74%
3 | 3.1 nM | 6850 nM | 175 nM | CC[C@H](C)[C@@H]1NC(=O)[C@@H](Cc2c[nH]c3ccccc23)NC(=O)[C@@H]2CCCN2C(=O)[C@@H](Cc2ccccc2)N(C)C(=O)[C@@H]2CNCCN2C(=O)[C@H]2CCC=NN2C1=O [Example 170, c-[D-Tryptophanyl-L-isoleucinyl-D-Δ-piperazyl-L-piperazin-2-yl-N^α -Me-D-phenylalanyl-L-prolyl]] (cyclo(I[dPiz(1,6-dehydro)][Pip(4-aza)][dNMeF]P[dW])) | – | – | –
4 | 3.9 nM | 15000 nM | 335 nM | CC[C@H](C)[C@@H]1NC(=O)[C@@H](Cc2ccc3ccccc3c2)NC(=O)[C@@H]2CCCN2C(=O)[C@@H](Cc2ccccc2)N(C)C(=O)[C@@H]2CNCCN2C(=O)[C@H]2CCCCN2C1=O [Example 171, c-[D-2-Naphthylalanyl-L-isoleucinyl-D-pipecolyl-L-piperazin-2-yl-D-(N^α -methyl)phenylalanyl-L-prolyl]] (cyclo(I[dPip][Pip(4-aza)][dNMeF]P[d2Nal])) | – | – | –
5 | – | – | – | CC[C@H](C)[C@@H]1NC(=O)[C@@H](Cc2c[nH]c3ccccc23)NC(=O)[C@@H]2CCCN2C(=O)[C@@H](CC(=O)OC(C)(C)C)NC(=O)[C@@H]2CCCCN2C(=O)[C@H]2CCCCN2C1=O [Example 172, c-[D-Tryptophanyl-L-isoleucinyl-D-pipecolyl-L-pipecolyl-D-(β-t-butyl)aspartyl-L-prolyl]] (cyclo(I[dPip][Pip][dD](OtBu)P[dW])) | > 10000 nM | > 10000 nM | inhibition at 0.1 µM (uterine OT receptors; 1 h, @ 100 (nM), read-out: [^3 H]OT: percent inhibition of radioligand at the given concentration): 20%
6 | 71 nM | 1500 nM | 2800 nM | CC[C@H](C)[C@@H]1NC(=O)[C@@H](Cc2ccccc2)NC(=O)[C@@H]2CCCN2C(=O)[C@@H](Cc2ccccc2)N(C)C(=O)[C@H](CCCCNC(=O)OC(C)(C)C)NC(=O)[C@H]2CCC=NN2C1=O [Example 173, C-[D-Phenylalanyl-L-isoleucyl-D-Δ-piperazyl-L-(N^ε -t-Butyloxycarbonyl)-Lysl-M-Me-D-phenylalanyl-L-prolyl]] (cyclo(I[dPiz(1,6-dehydro)]K(Boc)[dNMeF]P[dF])) | – | – | –
7 | 21 nM | 610 nM | 570 nM | CC[C@H](C)[C@@H]1NC(=O)[C@@H](Cc2ccccc2)NC(=O)[C@@H]2CCCN2C(=O)[C@@H](Cc2ccccc2)N(C)C(=O)[C@H](CCCCN)NC(=O)[C@H]2CCC=NN2C1=O [Example 174, c-[D-Phenylalanyl-L-isoleucyl-D-Δ-piperazyl-L-Lysyl-N-Me-D-phenylalanyl-L-prolyl]] (cyclo(I[dPiz(1,6-dehydro)]K[dNMeF]P[dF])) | – | – | –
8 | – | – | – | CC[C@H](C)[C@@H]1NC(=O)[C@@H](Cc2ccccc2)NC(=O)[C@@H]2CCCN2C(=O)[C@@H](Cc2cn(COCc3ccccc3)cn2)NC(=O)[C@@H]2CNCCN2C(=O)[C@H]2CCCCN2C1=O [Example 176, c-[D-Phenylalanyl-L-isoleucinyl-D-pipecolyl-L-piperazin-2-yl-D-histidinyl(BOM)-L-prolyl]] (cyclo([dF]I[dPip][Pip(4-aza)][X4]P)) | 10000 nM | – | inhibition at 1 µM (uterine OT receptors; [1]): 80%; inhibition at 10 µM (AVP-V2 sites; [5]): 81%
9 | 76 nM | 16000 nM | 12000 nM | CC[C@H](C)[C@@H]1NC(=O)[C@@H](Cc2c[nH]c3ccccc23)NC(=O)[C@@H]2CCCN2C(=O)[C@@H](Cc2cn(COCc3ccccc3)cn2)NC(=O)[C@@H]2CNCCN2C(=O)[C@H]2CCCCN2C1=O [Example 177, c-[D-Tryptophanyl-L-isoleucinyl-D-pipecolyl-L-piperazin-2-yl-D-histidinyl(BOM)-L-prolyl]] (cyclo([dW]I[dPip][Pip(4-aza)][X4]P)) | – | – | –
10 | – | – | – | CC[C@H](C)[C@@H]1NC(=O)[C@@H](Cc2ccccc2)NC(=O)[C@@H]2CCCN2C(=O)[C@@H](CC(=O)OC(C)(C)C)NC(=O)[C@@H]2CCCCN2C(=O)[C@H]2CCCCN2C1=O [Example 179, c-[D-Phenylalanyl-L-isoleucinyl-D-pipecolyl-L-pipecolyl-D-(β-t-butyl)aspartyl-L-prolyl]] (cyclo(I[dPip][Pip][dD](OtBu)P[dF])) | > 10000 nM | > 10000 nM | inhibition at 1 µM (uterine OT receptors; [1]): 63%
11 | – | – | – | CC[C@H](C)[C@@H]1NC(=O)[C@@H](Cc2cn(CC(=O)OC(C)(C)C)c3ccccc23)NC(=O)[C@@H]2CCCN2C(=O)[C@@H](Cc2ccccc2)N(C)C(=O)[C@@H]2CN(CC(=O)OC(C)(C)C)CCN2C(=O)[C@H]2CCCCN2C1=O [Example 182, c-[D-Tryptophanyl(t-butylacetyl)-L-isoleucinyl-D-pipecolyl-L-piperazin-2-yl(4-t-butylacetyl)-D-(N^α -Me)phenylalanyl-L-prolyl]] | > 10000 nM | > 10000 nM | inhibition at 1 µM (uterine OT receptors; [1]): 56%
12 | – | – | – | CC[C@H](C)[C@@H]1NC(=O)[C@@H](Cc2c[nH]c3ccccc23)NC(=O)[C@@H]2CCCN2C(=O)[C@@H](Cc2ccccc2)N(C)C(=O)[C@@H]2CN(P(=O)(OCc3ccccc3)OCc3ccccc3)CCN2C(=O)[C@H]2CCCCN2C1=O [Example 183, c-[D-Tryptophanyl-L-isoleucinyl-D-pipecolyl-L-piperazin-2-yl(4-dibenzylphosphoramidyl)-D-(N^α -Me)phenylalanyl-L-prolyl]] (cyclo(I[dPip][X9][dNMeF]P[dW])) | – | – | inhibition at 0.1 µM (uterine OT receptors; [1]): 58%; IC50 (AVP-V1 sites; Receptor Binding Results IC50 (nM) [^3 H]-AVP-V1, rat liver membranes, 1 nM [^3 H]AVP): > 10000 nM; inhibition at 10 µM (AVP-V2 sites; 0.5 h, read-out: [^3 H]-AVP-V2: percent inhibition of radioligand at the given concentration): 71%

Row | SMILES | IC50 (uterine OT receptors) | IC50 (AVP-V1 sites; [4]) | IC50 (AVP-V2 sites) | IC50 (AVP-V1 sites; [2]) | IC50 (AVP-V2 sites; [3]) | also measured
13 | CC[C@H](C)[C@@H]1NC(=O)[C@@H](Cc2c[nH]c3ccccc23)NC(=O)[C@@H]2CCCN2C(=O)[C@@H](Cc2ccccc2)N(C)C(=O)[C@@H]2CN(C(=O)OCc3ccccc3)CCN2C(=O)[C@H]2CCC=NN2C1=O [Example 168, c-[D-Tryptophanyl-L-isoleucinyl-D-Δ-piperazyl-L-piperazin-2-yl(4-Cbz)-N-Me-D-phenylalanyl-L-prolyl]] (cyclo(I[dPiz(1,6-dehydro)][X2][dNMeF]P[dW])) | 34 nM | – | – | 10000 nM | – | inhibition at 1 µM (AVP-V2 sites; 0.5 h, @ 1,000 (nM), read-out: [^3 H]-AVP-V2: percent inhibition of radioligand at the given concentration): 54%
14 | CC[C@H](C)[C@@H]1NC(=O)[C@@H](Cc2c[nH]c3ccccc23)NC(=O)[C@@H]2CCCN2C(=O)[C@@H](Cc2ccccc2)N(C)C(=O)[C@@H]2CN(CC(=O)OC(C)(C)C)CCN2C(=O)[C@H]2CCCCN2C1=O [Example 180, C-[D-Tryptophanyl-L-isoleucinyl-D-pipecolyl-L-piperazin-2-yl (4-t-butylacetyl)-D-(N^α -Me)phenylalanyl-L-prolyl]] (cyclo([dW]I[dPip][X5][dNMeF]P)) | 150 nM | – | – | – | – | [^3 H]-AVP-V1: percent inhibition of radioligand at the given concentration (AVP-V1 sites; @ 10,000 (nM)): 44%; inhibition at 10 µM (AVP-V2 sites; [5]): 79%
15 | CC[C@H](C)[C@@H]1NC(=O)[C@@H](Cc2c[nH]c3ccccc23)NC(=O)[C@@H]2CCCN2C(=O)[C@@H](Cc2ccccc2)N(C)C(=O)[C@@H]2CN(CC(=O)O)CCN2C(=O)[C@H]2CCCCN2C1=O [Example 181, c-[D-Tryptophanyl-L-isoleucinyl-D-pipecolyl-L-piperazin-2-yl(4-carboxymethyl)-D-(N^α -Me)phenylalanyl-L-prolyl]] (cyclo(I[dPip][X10][dNMeF]P[dW])) | 100 nM | – | – | > 10000 nM | – | inhibition at 10 µM (AVP-V2 sites; [5]): 73%
